For the test, the system named is murine splenocytes. Put plainly: ConA mitogen-stimulated proliferation of murine splenocytes ([3H]-thymidine incorporation). Conditions: for inhibition of ConA induced murine splenocyte proliferation (cpm), in words: ConA 1 μg/ml, BALB/c splenocytes. It counts as cell-based, mouse (BALB/c). The procedure: (§1) Proliferation was assessed by the incorporation of [^3H]-thymidine into DNA. Eight-week-old female BALB/c mice were obtained from Harlan (Bicester, Oxon, UK) and given food and water ad libitum. Splenocyte suspensions were prepared by removing the spleens and placing them into RPMI 1640 medium. The spleens were forced through 70-μm-pore-size wire gauzes using the plunger from a 5-ml syringe to produce a single cell suspension. The cells were pelleted by centrifugation, and erythrocytes were lysed with 0.017 M Tris, 0.144 M ammonium chloride buffer, pH 7.2. Leucocytes were washed twice with RPMI 1640 medium with 2% (vol/vol) foetal calf serum (FCS) and resuspended in complete cell culture medium (CTCM) consisting of RPMI 1640 medium with 5% FCS, 2 mM L-glutamine, and 5×10^−5 M 2-mercaptoethanol. HSL compounds were tested at doubling down dilutions ranging from 1 mM to 0.1 μM in a final volume of 200 μl of CTCM, containing ConA (Sigma, Poole, UK) at 1 μg/ml and 100,000 spleen cells. Following incubation for 48 h at 37° C. in 5% CO2-air, 0.25 μCi [^3H]-thymidine (Amersham) in 10 μl volume made up in RPMI 1640 medium was added and the cells were incubated for a further 24 h. Cells were harvested onto fibreglass filters with a Packard filtermate harvester. After the addition of 25 μl of MicroScint-O (Packard) to each well the filters were counted with the Packard TopCount scintillation counter.
Mitogen (Concanavalin A) induced murine splenocyte proliferation was indicated by the incorporation of tritated thymidine into the DNA in the mouse spleen cells as shown by counts per minute using the scintillation counter. The inhibitory effect of an HSL compound being tested on cell proliferation was indicated by a reduction in counts per minute.
as §1, with “70 μm pore size” for “70-μm-pore-size”, “5 ml” for “5-ml”, “The title compound was” for “HSL compounds were”, “dilutions” for “dilutions ranging from 1 mM to 0.1 μM in a final volume of 200 μl of CTCM,”, “g/ml” for “μg/ml”, “COrair,” for “CO2-air,”
Mitogen (Concanavalin A) induced murine splenocyte proliferation was indicated by the incorporation of tritated thymidine into the DNA in the mouse spleen cells as shown by counts per minute using the scintillation counter. The inhibitory effect of the title compound being tested on cell proliferation was indicated by a reduction in counts per minute.
A general note: Incorporation of labelled thymidine or its analogues reports DNA synthesis.

Entries after “also recorded” stand apart in the source; their conditions may differ.

Two compounds from US7371779B2, “Synergistic compositions of N-acylhomoserine lactones and 4-quinolones” (The Secretary of State for Defense Science and Technology, priority 2001, dated 2008) can be followed below.

As to `CCCCCCCCCC(=O)CC(=O)N[C@H]1CCOC1=O` [Example 6], where the note is “6.25 μM, alone”, the “effect of OdDHL alone on murine splenocyte proliferation” value was “inactive”. In addition, the IC50 (ConA 1 μg/ml, 100,000 spleen cells, Experiment I, read-out: IC50 in inhibition of ConA induced murine splenocyte proliferation) turned out to be 4 µM. Under “listed as OdDHL”, the “inhibition of ConA induced murine splenocyte proliferation (cpm), in words” value (“inhibition” below) is reported as “inhibits splenocyte proliferation; also recorded: inhibit the proliferation”.
Take `CCCCCCCc1[nH]c2ccccc2c(=O)c1O` [PQS]: the “inhibition” value was “inhibit the proliferation”. For the same compound, the “inhibition” value (listed as 2-heptyl-3-hydroxy-4(1H)quinolone) is reported as “inhibits splenocyte proliferation”.
